Values quoted from earlier work in patent US20250360058A1, “IN SITU FORMED CATIONIC ACP GEL FOR TREATMENT OF TOOTH […]” (KONINKLIJKE PHILIPS N.V., priority 2022, published 2025).

Details: between pH 6.5-8.0

| Structure (SMILES) | positively charged basic side chains [%] |
| --- | --- |
| N=C(N)NCCC[C@H](N)C(=O)O [Arginine, arginine] | 100 |
| NCCCC[C@H](N)C(=O)O [Lysine, lysine] | 100 |
